Consider 1 molecule from patent US11718628B2, “SREBP inhibitors comprising a 6-membered central ring” (Capulus Therapeutics, LLC, priority 2018, dated 2023).

Read-outs that look alike come from different tables or passages of the source.

Data set [1] in a line: In vivo pharmacokinetic properties in rats (IV and PO). More on the design: species or system male Sprague Dawley rats. Particulars: male, Sprague Dawley, rat, plasma. The gist of the method:
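Male Sprague Dawley rats received 2.00 mg/kg IV via the tail vein, with plasma sampled from a cannulated jugular vein from 0.083 to 24 h. Oral dosing was 10 mg/kg in rats or C57BL/6J mice, sampled at 0.25-24 h by jugular cannula (rats) or retro-orbital plexus (mice).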

By melting point is commonly meant the temperature, or range, at which the solid turns liquid. The bioavailability is the share of a dose that reaches the circulation, judged against a reference dose that is usually intravenous. `CC(C)(C)c1cc(-c2cncc(-c3ccc(C(=O)N4CCC(O)CC4)cc3)c2F)ccn1` [Compound Z-866, (4-(2′-(tert-butyl)-4-fluoro-[3,4′-bipyridin]-5-yl)phenyl)(4-hydroxypiperidin-1-yl)methanone] came in with a melting point of 100 to 104 °C. The same molecule displayed an AUC(0-t) in data set [1] (10 mg/kg, heading: Oral Administration AUC0-last, PO, 10 mg/kg) of 151 ng·h/mL. Also, the AUC(0-t) in data set [1] (IV, 2 mg/kg, read-out: Intravenous Delivery (IV) AUC0-last) worked out at 1070 ng·h/mL. In addition, in data set [1] (IV, 2 mg/kg, read-out: Intravenous Delivery (IV) CL), the clearance turned out to be 31.7 mL/min/kg. Further, the half-life in data set [1] (IV, 2 mg/kg, read-out: Intravenous Delivery (IV) T1/2 (converted)) is 54.6 min. In addition, in data set [1] (IV, 2 mg/kg, read-out: Intravenous Delivery (IV) Vd), the Vd worked out at 2.54 L/kg. Moreover, the bioavailability in data set [1] (PO 10 mg/kg vs IV 2 mg/kg, read-out: % F (Bioavailability of oral delivery)) turned out to be 2.8%. For the same molecule, the half-life in data set [1] (PO, 10 mg/kg, read-out: Oral Administration (PO) T1/2 (converted)) was 41.4 min. For the same molecule, the Tmax in data set [1] (PO, 10 mg/kg, read-out: Oral Administration (PO) Tmax) is 30 min.
